Measurements as given in ChEMBL document CHEMBL1139561, “Biaryl isoxazolinone antibacterial agents” (Bioorg Med Chem Lett, 2005).
In brackets after ≈: the same amount, converted by molar mass. One block for each compound: values may come before it.

What was measured:
Haemophilus influenzae = assay: Minimum inhibition concentration against Haemophilus influenzae strains; type: functional
Staphylococcus aureus [1] = assay: Minimum inhibition concentration against Staphylococcus aureus strains in presence of 4% calf serum; type: functional
Staphylococcus aureus [2] = assay: Minimum inhibition concentration against Staphylococcus aureus strains in presence of >32% calf serum; type: functional
[3] = Maximum serum concentration in mouse was determined; type: ADME, organism-based
[4] = Protective dose against Staphylococcus aureus in mice after 8 days of oral b.i.d. administration at 1 and 5 hr per interval (n=10); type: functional; conditions: read-out: PD50
[5] = Area under curve concentration in mouse was determined; type: ADME; conditions: in vivo
[6] = Half life for compound in mouse was determined; type: ADME; conditions: in vivo
Staphylococcus aureus [7] = assay: Minimum inhibition concentration against Staphylococcus aureus strains in presence of 0.5% calf serum; type: functional
Staphylococcus aureus [8] = assay: Minimum inhibition concentration against Staphylococcus aureus strains in presence of 0.25% calf serum; type: functional
Staphylococcus aureus [9] = assay: Minimum inhibition concentration against Staphylococcus aureus strains in presence of 16% calf serum; type: functional
Staphylococcus aureus [10] = assay: Minimum inhibition concentration against Staphylococcus aureus strains in presence of 32% calf serum; type: functional; conditions: Staphylococcus aureus
Staphylococcus aureus [11] = assay: Minimum inhibition concentration against Staphylococcus aureus strains in presence of 8% calf serum; type: functional
Staphylococcus aureus [12] = assay: Minimum inhibition concentration against Staphylococcus aureus strains in presence of 1% calf serum; type: functional
Staphylococcus aureus [13] = assay: Minimum inhibition concentration against Staphylococcus aureus strains in presence of 2% calf serum; type: functional
Staphylococcus aureus [14] = assay: Minimum inhibition concentration against Staphylococcus aureus strains in presence of 0.03% calf serum; type: functional
[15] = Minimum inhibition concentration against Haemophilus influenzae strains; range is 2-8 […]; type: functional
Staphylococcus aureus [16] = assay: Minimum inhibition concentration against Staphylococcus aureus strains in presence of >64% calf serum; type: functional
[17] = Maximum serum concentration in rat was determined; type: ADME, organism-based
[18] = Half life for compound in rat was determined; type: ADME; conditions: in vivo

Compound: CC(=O)NCn1cc(-c2ccc(-c3ccc(Oc4ccccc4)cc3)cc2)c(=O)o1
MIC (Haemophilus influenzae): > 32 µg/mL
MIC (Staphylococcus aureus [2]): 64 µg/mL

Compound: CC(=O)NCn1cc(-c2ccc(C3=CCN(C(C)=O)CC3)cc2)c(=O)o1
Cmax [3]: 2600 ng/mL
MIC (Haemophilus influenzae): 2 µg/mL (≈ 5.63 µM)
ED50 [4]: 9 mg/kg/day
AUC [5]: 1.5 µg/h/mL
half-life [6]: 6.4 min
MIC (Staphylococcus aureus [7]): 0.25 µg/mL

Compound: CC(=O)NCn1cc(-c2ccc(-c3cncnc3)cc2)c(=O)o1
Cmax [3]: 10400 ng/mL
MIC (Haemophilus influenzae): 4 µg/mL (≈ 12.9 µM)
MIC (Staphylococcus aureus [8]): 0.25 µg/mL
ED50 [4]: > 14.1 mg/kg/day
AUC [5]: 29.1 µg/h/mL
half-life [6]: 103 min

Compound: COC(=O)c1ccc(-c2ccc(-c3cn(CNC(C)=O)oc3=O)cc2)cc1
MIC (Haemophilus influenzae): > 32 µg/mL
MIC (Staphylococcus aureus [7]): 0.06 µg/mL

Compound: CC(=O)NCn1cc(-c2ccc(-c3ccoc3)cc2)c(=O)o1
MIC (Haemophilus influenzae): 4 µg/mL (≈ 13.4 µM)
MIC (Staphylococcus aureus [1]): 0.125 µg/mL
ED50 [4]: > 50 mg/kg/day

Compound: CC(=O)NCn1cc(-c2ccc(C3=CCN(C(=O)OC(C)(C)C)CC3)cc2)c(=O)o1
MIC (Staphylococcus aureus [10]): 8 µg/mL
MIC (Haemophilus influenzae): > 64 µg/mL

Compound: CC(=O)NCn1cc(-c2ccc(-c3ccc(C(=O)O)c(F)c3)cc2)c(=O)o1
MIC (Staphylococcus aureus [10]): 4 µg/mL
MIC (Haemophilus influenzae): 32 µg/mL (≈ 86.4 µM)

Compound: CC(=O)NCn1cc(-c2ccc(C3=CCSCC3)cc2)c(=O)o1
MIC (Haemophilus influenzae): 32 µg/mL (≈ 96.8 µM)
MIC (Staphylococcus aureus [1]): 1 µg/mL

Compound: COc1ccccc1-c1ccc(-c2cn(CNC(C)=O)oc2=O)cc1
MIC (Haemophilus influenzae): 32 µg/mL (≈ 94.6 µM)
MIC (Staphylococcus aureus [11]): 0.5 µg/mL

Compound: CC(=O)NCn1cc(-c2ccc(-c3ccc(Cl)cc3)cc2)c(=O)o1
MIC (Haemophilus influenzae): > 32 µg/mL
MIC (Staphylococcus aureus [11]): 0.06 µg/mL

Compound: CC(=O)NCn1cc(-c2ccc(-c3cc(C)cs3)cc2)c(=O)o1
MIC (Haemophilus influenzae): > 64 µg/mL
MIC (Staphylococcus aureus [1]): 0.25 µg/mL

Compound: CC(=O)NCn1cc(-c2ccc(C3=CCNCC3)cc2)c(=O)o1
MIC (Haemophilus influenzae): 16 µg/mL (≈ 51.1 µM)
MIC (Staphylococcus aureus [11]): 8 µg/mL

Compound: CC(=O)NCn1cc(-c2ccc(-c3cccs3)cc2)c(=O)o1
MIC (Staphylococcus aureus [11]): 0.25 µg/mL
MIC [15]: 2 µg/mL (≈ 6.36 µM)

Compound: CC(=O)NCn1cc(-c2ccc(-c3cncc(C(=O)O)c3)cc2)c(=O)o1
MIC (Haemophilus influenzae): 64 µg/mL (≈ 181 µM)
MIC (Staphylococcus aureus [16]): 32 µg/mL

Compound: CC(=O)NCn1cc(-c2ccc(-c3ccc[nH]3)cc2)c(=O)o1
MIC (Staphylococcus aureus [9]): 8 µg/mL
MIC (Haemophilus influenzae): > 64 µg/mL

Compound: CC(=O)NCn1cc(-c2ccc(C3=CCS(=O)(=O)CC3)cc2)c(=O)o1
Cmax [3]: 17700 ng/mL
MIC (Haemophilus influenzae): 4 µg/mL (≈ 11 µM)
MIC (Staphylococcus aureus [12]): 0.5 µg/mL
ED50 [4]: 4 mg/kg/day
AUC [5]: 19.4 µg/h/mL
half-life [6]: 12.2 min

Compound: CC(=O)NCn1cc(-c2ccc(C3=CCN(C(=O)CO)CC3)cc2)c(=O)o1
Cmax [3]: 22900 ng/mL
MIC (Haemophilus influenzae): 2 µg/mL (≈ 5.39 µM)
ED50 [4]: 4 mg/kg/day
Cmax [17]: 1900 ng/mL
AUC [5]: 16.9 µg/h/mL
half-life [6]: 23.5 min
MIC (Staphylococcus aureus [7]): 0.25 µg/mL
half-life [18]: 36 min

The remaining lines, values ahead:

MIC (Haemophilus influenzae): 32 µg/mL (≈ 92.9 µM)
MIC (Staphylococcus aureus [1]): 0.25 µg/mL
Compound: CC(=O)NCn1cc(-c2ccc(-c3sccc3CO)cc2)c(=O)o1

MIC (Haemophilus influenzae): 4 µg/mL (≈ 11.6 µM)
MIC (Staphylococcus aureus [1]): 0.125 µg/mL
Compound: CC(=O)NCn1cc(-c2ccc(-c3ccc(F)cc3F)cc2)c(=O)o1

MIC (Haemophilus influenzae): 4 µg/mL (≈ 12.7 µM)
MIC (Staphylococcus aureus [1]): 0.5 µg/mL
Compound: CC(=O)NCn1cc(-c2ccc(-c3cncs3)cc2)c(=O)o1

MIC (Staphylococcus aureus [9]): 8 µg/mL
MIC (Haemophilus influenzae): 32 µg/mL (≈ 90 µM)
Compound: CC(=O)NCn1cc(-c2ccc(C3=CCN(C(=N)N)CC3)cc2)c(=O)o1

MIC (Staphylococcus aureus [10]): 1 µg/mL
MIC (Haemophilus influenzae): 16 µg/mL (≈ 53.6 µM)
Compound: CC(=O)NCn1cc(-c2ccc(-c3ccco3)cc2)c(=O)o1

MIC (Haemophilus influenzae): 8 µg/mL (≈ 22.4 µM)
MIC (Staphylococcus aureus [12]): 1 µg/mL
Compound: CC(=O)NCn1cc(-c2ccc(C3CCN(C(C)=O)CC3)cc2)c(=O)o1

MIC (Haemophilus influenzae): 4 µg/mL (≈ 12.7 µM)
MIC (Staphylococcus aureus [12]): 0.25 µg/mL
Compound: CC(=O)NCn1cc(-c2ccc(C3=CCOCC3)cc2)c(=O)o1

MIC (Haemophilus influenzae): 4 µg/mL (≈ 12 µM)
MIC (Staphylococcus aureus [13]): 0.06 µg/mL
Compound: CC(=O)NCn1cc(-c2ccc(-c3ccc(C#N)cc3)cc2)c(=O)o1

MIC (Haemophilus influenzae): 8 µg/mL (≈ 25.9 µM)
MIC (Staphylococcus aureus [13]): 1 µg/mL
Compound: CC(=O)NCn1cc(-c2ccc(-c3ccccn3)cc2)c(=O)o1

MIC (Haemophilus influenzae): 4 µg/mL (≈ 12.7 µM)
MIC (Staphylococcus aureus [14]): 0.03 µg/mL
Compound: CC(=O)NCn1cc(-c2ccc(-c3ccsc3)cc2)c(=O)o1

MIC (Haemophilus influenzae): 4 µg/mL (≈ 11.5 µM)
MIC (Staphylococcus aureus [11]): 0.06 µg/mL
Compound: CC(=O)NCn1cc(-c2ccc(-c3ccc(Cl)s3)cc2)c(=O)o1

MIC (Staphylococcus aureus [9]): 16 µg/mL
MIC (Haemophilus influenzae): 8 µg/mL (≈ 22.7 µM)
Compound: CC(=O)NCn1cc(-c2ccc(-c3cccc(C(=O)O)c3)cc2)c(=O)o1
